These results are taken from article PMC7366380, “Discovery of a Potent and Selective Covalent Inhibitor and Activity-Based Probe for the Deubiquitylating Enzyme UCHL1, with Antifibrotic Activity” (Journal of the American Chemical Society, 2020).

The target in data set [1] is T1, FLAG-UCHL1 (Homo sapiens, UniProt P09936).
T1 construct: expressed in transfected cells
T1 sequence (P09936 1-223): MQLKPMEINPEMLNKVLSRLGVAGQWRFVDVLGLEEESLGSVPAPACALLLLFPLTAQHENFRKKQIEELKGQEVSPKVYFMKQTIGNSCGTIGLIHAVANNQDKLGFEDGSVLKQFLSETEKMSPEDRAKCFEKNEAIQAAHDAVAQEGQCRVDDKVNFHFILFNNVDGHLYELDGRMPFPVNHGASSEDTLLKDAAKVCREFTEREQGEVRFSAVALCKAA
Briefly: HTRF in-cell UCHL1 activity assay with HA-Ub-VME in Cal51 cells. Format: cell-based. To be noted: Cal51 cells stably expressing FLAG-UCHL1, 1 h, HA-Ub-VME 100 nM. Background: Time-resolved FRET reads energy transfer from a long-lived donor to a nearby acceptor.

Data set [2] addresses T2, USP35 (Homo sapiens, UniProt Q9P2H5).
T2 sequence (Q9P2H5 1-1018): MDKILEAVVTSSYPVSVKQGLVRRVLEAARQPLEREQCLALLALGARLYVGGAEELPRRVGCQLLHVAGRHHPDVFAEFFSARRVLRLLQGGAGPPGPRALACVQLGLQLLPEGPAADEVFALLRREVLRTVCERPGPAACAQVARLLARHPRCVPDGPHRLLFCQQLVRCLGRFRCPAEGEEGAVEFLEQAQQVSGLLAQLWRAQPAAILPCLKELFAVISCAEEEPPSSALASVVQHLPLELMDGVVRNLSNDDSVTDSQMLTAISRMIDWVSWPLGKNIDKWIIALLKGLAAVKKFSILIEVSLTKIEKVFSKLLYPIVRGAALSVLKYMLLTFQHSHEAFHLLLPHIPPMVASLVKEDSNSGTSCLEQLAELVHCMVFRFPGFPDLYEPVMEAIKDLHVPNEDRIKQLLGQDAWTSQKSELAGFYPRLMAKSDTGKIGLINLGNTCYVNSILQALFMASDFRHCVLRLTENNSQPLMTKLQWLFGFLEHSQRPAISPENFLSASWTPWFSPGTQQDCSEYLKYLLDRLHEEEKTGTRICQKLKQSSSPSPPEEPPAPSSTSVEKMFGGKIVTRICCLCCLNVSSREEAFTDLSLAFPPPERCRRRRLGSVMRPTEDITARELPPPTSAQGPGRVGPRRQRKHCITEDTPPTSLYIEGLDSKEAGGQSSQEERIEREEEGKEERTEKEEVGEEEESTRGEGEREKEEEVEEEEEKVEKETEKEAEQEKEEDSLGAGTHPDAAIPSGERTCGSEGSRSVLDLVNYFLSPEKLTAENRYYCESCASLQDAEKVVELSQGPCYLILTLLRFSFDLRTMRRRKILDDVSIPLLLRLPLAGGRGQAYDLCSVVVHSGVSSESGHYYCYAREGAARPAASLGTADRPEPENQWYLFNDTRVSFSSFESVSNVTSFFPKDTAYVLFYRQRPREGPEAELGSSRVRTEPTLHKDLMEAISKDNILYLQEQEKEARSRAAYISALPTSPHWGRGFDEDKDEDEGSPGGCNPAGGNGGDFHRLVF
The experiment in a line: Biochemical DUB selectivity profiling assay: USP35. To be noted: Ub-Lys-TAMRA 50 nM, buffer B; read-out: Biochemical IC50 range, USP35. As for the experimental part: DUB Assay Substrate Substrate
Buffer Concentration (nM) […]
Sepharose® 4B resin (GE Healthcare).
10 kDa molecular weight cut-off (MWCO)).
Fractions containing protein
Protein concentration was […]
reaction volume of 21 μL. […]
compound (final concentration 5 nM).
IC50 values were determined
Biochemical DUB selectivity profiling assays […]
in 40 µL total reaction volume.

In data set [3] the target is T3, OTUB2 (Homo sapiens, UniProt Q96DC9).
T3 sequence (Q96DC9 1-234): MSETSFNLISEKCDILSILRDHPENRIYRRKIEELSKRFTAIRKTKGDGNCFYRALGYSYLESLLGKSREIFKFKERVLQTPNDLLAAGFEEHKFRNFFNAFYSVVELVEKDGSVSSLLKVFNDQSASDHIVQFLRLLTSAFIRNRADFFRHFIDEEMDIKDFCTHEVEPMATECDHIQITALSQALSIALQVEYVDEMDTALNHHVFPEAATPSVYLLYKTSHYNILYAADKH
Briefly: biochemical.

The nature of data set [4]: FMT assay, cell number (DAPI nuclei count). To be noted: human.
Data set [5] addresses T4, UCHL1 (Homo sapiens, UniProt P09936).
T4 sequence (P09936 1-223): T1 sequence (P09936 1-223)
Briefly: In-cell proteome-wide competitive ABPP (quantitative chemical proteomics), HEK293: UCHL1. As to conditions: for Log2 reporter intensity values: UCHL1: DMSO substract (FC); for Log2 reporter intensity values: UCHL1 / Log2 reporter intensity values: replicates A-C; for UCHL1 response in proteome-wide competitive ABPP: HEK293, compound 60 min, then 2 (20 nM) 10 min; for Log2 reporter intensity values: UCHL1, DMSO subtracted.

Molecules are shown by their SMILES. Values joined by “and” are separate entries in the source; they are usually repeats but may differ in a detail not shown here. Equal values may be shown once.

One may read the IC50 as the concentration at which inhibition is half-maximal. Usually EC50 stands for the concentration that produces a half-maximal response. On to `N#CN1CCC[C@H]1C(=O)N1CCc2c(-c3c[nH]c4ncccc34)cccc21` [Compound 1], for which the IC50 in data set [1] was 0.82 µM; in data set [2], over 10 µM; in data set [3] it was over 10 µM. In data set [4], this compound displayed an EC50 at 3 days of about 11 µM. Also, the “Log2 reporter intensity values: UCHL1” value was 1.266 and 1.307 and 1.157 in data set [5] (1 at 1 μM, competition with ABP 2); 0.9345 and 0.8874 and 0.9379 in data set [5] (1 at 4 μM, competition with ABP 2). In data set [5], the “UCHL1 response in proteome-wide competitive ABPP” value was “responds strongly”. For the same compound, the “Log2 reporter intensity values” in data set [5] (1_1 μM) was 0.2661 and 0.3067 and 0.157; in data set [5] (1_4 μM), -0.06576 and -0.1128 and -0.06231; in data set [5] (1 at 1 μM), 0.3407 and 0.3862 and 0.2107; in data set [5] (1 at 4 μM), -0.09779 and -0.1723 and -0.09247.
On to `C#Cc1cnc2[nH]cc(-c3cccc4c3CCN4C(=O)[C@@H]3CCCN3C#N)c2c1` [Compound 2], for which the IC50 in data set [1] was 0.11 µM; in data set [2] it was over 10 µM. The EC50 at 3 days in data set [4] was about 11 µM. Moreover, the “Log2 reporter intensity values: UCHL1” value in data set [5] (20 nM ABP 2 alone) was 6.229 and 5.741 and 6.184. Besides, the “Log2 reporter intensity values” in data set [5] (20 nM ABP 2) was 2.639 and 2.521 and 2.629 and 5.2291 and 4.741 and 5.184.
Take `N#CN1CCC[C@@H]1C(=O)N1CCc2c(-c3c[nH]c4ncccc34)cccc21` [Compound 3]: the half-maximal inhibitory concentration (IC50) in data set [1] is 23 µM; in data set [2], over 10 µM; in data set [3] it was over 10 µM. In data set [4], the EC50 at 3 days was about 23 µM. The “Log2 reporter intensity values: UCHL1” value is 5.152 and 5.416 and 5.469 in data set [5] (3 at 1 μM, competition with ABP 2); 5.424 and 5.76 and 5.633 in data set [5] (3 at 4 μM, competition with ABP 2). Besides, the “UCHL1 response in proteome-wide competitive ABPP” value in data set [5] is “does not respond”. The “Log2 reporter intensity values” in data set [5] (3_1 μM) was 4.152 and 4.416 and 4.468; in data set [5] (3_4 μM), 4.423 and 4.76 and 4.632; in data set [5] (3 at 1 μM), 2.365 and 2.437 and 2.451; in data set [5] (3 at 4 μM) it was 2.439 and 2.526 and 2.494.
Consider `CC(=O)O/N=C1\C(=O)N(Cc2cc(Cl)ccc2Cl)c2ccc(Cl)cc21` [LDN-57444, reference compound], for which the IC50 in data set [2] and in data set [3] was over 10 µM each time.
